Experimental data published in US20210147472A1, “SOLID FORMS AND FORMULATIONS COMPRISING A GLUCOCORTICOID RECEPTOR ANTAGONIST AND USES THEREOF” (ORIC Pharmaceuticals, Inc., priority 2018, published 2021).
In brackets after ≈: the same amount, converted by molar mass.

What was measured:
Format in all cases: physicochemical
[1] = Solubility of Compound 1 (freebase form) in dosing vehicles, HPLC; conditions: shaken five days, 25° C. (40° C. semi-solid, 50° C. solid vehicles)
Procedure: This study was carried out to evaluate the solubility of Compound 1 (freebase form) in a variety of dosing vehicles to identify excipient classes that maximize drug solubility. A total of 20 vehicles which were selected and agreed with the customer were used in this study. Compound 1 was added to approximately 1 gram of the excipients. After the initial addition of Compound 1, the mixtures were shaken in a temperature-controlled vortex mixer at 25° C. (40° C. for vehicles that were semi-solid at room temperature and 50° C. for solid vehicles) then examined for solid residues. If dissolution was observed during the mixing time, additional Compound 1 was added until no further dissolution was observed. After shaking for a total of five days, the suspensions were filtered using a centrifuge tube with 0.45 PVDF membrane filter (Millipore Durapore®). The filtrate was weighed in to a 25-mL volumetric flask and diluted to volume with the diluent solution (90:10% v/v IPA/Acetonitrile) for a determination of Compound 1 concentration via High Performance Liquid Chromatography (HPLC). Residual solids were inspected by PXRD to determine the solid form. Quantitative determination of the amount of API dissolved was performed using reverse-phase HPLC analyses on an Agilent 1290 Infinity II UHPLC system equipped with a Diode Array Detector (DAD). Agilent 1290 Infinity II UHPLC system equipped with a Diode Array Detector (DAD) Mobile Phase A: 0.05% Formic acid in water Mobile Phase B: 0.05% Formic acid in acetonitrile

[2] = Effect of stabilizers on stability of Compound 1 capsule matrix (A1 formation)
Procedure: Two antioxidants, α-tocopherol and ascorbyl palmitate, were evaluated to minimize the oxidation. Use of α-tocopherol alone improved Compound 1 stability as measured by the formation of A1 (see Table 1). When ascorbyl palmitate was combined with α-tocopherol, further stability improvement was observed. Table 14 summarizes the compositions of the Compound 1 capsule matrix evaluated and Table 15 summarizes the effect of α-tocopherol and ascorbyl palmitate as stabilizers on the stability of Compound 1.

[3] = Solubility screen of Compound 1 in lipids; conditions: oil or lipid

SMILES: CC(C)N(C)c1ccc([C@H]2C[C@@]3(C)[C@@H](CC[C@@]3(O)C#CC(C)(C)C)[C@@H]3CCC4=CC(=O)CC[C@@H]4[C@H]32)cc1 [Compound 1, (8R,9S,10R,11S,13S,14S,17S)-17-(3,3-dimethylbut-1-yn-1-yl)-17-hydroxy-11-(4-(isopropyl(methyl)amino)phenyl)-13-methyl-1,2,6,7,8,9,10,11,12,13,14,15,16,17-tetradecahydro-3H-cyclopenta[a]phenanthren-3-one]
- Solubility ([1]; in Caprylocaproyl polyoxyl-8 glycerides): 42.4 mg/g
- Solubility ([1]; in Decanoic acid (Capric acid)): 201.0 mg/g
- Solubility ([1]; in Diethyl glycol monoethyl ether): 130.3 mg/g
- Solubility ([1]; in Glycerin): 0.1 mg/g
- Solubility ([1]; in Glyceryl caprylate/caprate): 79.0 mg/g
- Solubility ([1]; in Glyceryl monolinoleate): 41.2 mg/g
- Solubility ([1]; in Lauroyl polyoxyl-6 glycerides): 40.8 mg/g
- Solubility ([1]; in Lauroyl polyoxyl-32 glycerides): 39.2 mg/g
- Solubility ([1]; in Medium chain triglycerides): 26.1 mg/g
- Solubility ([1]; in Octanoic acid (Caprylic acid)): 199.2 mg/g
- Solubility ([1]; in PEG 400): 14.5 mg/g
- Solubility ([1]; in Polyethylene glycol monostearate): 34.2 mg/g
- Solubility ([1]; in Polyethylene glycol sorbitan monolaurate): 26.1 mg/g
- Solubility ([1]; in Propylene Glycol): 12.1 mg/g
- Solubility ([1]; in Propylene glycol monocaprylate): 139.6 mg/g
- Solubility ([1]; in Propylene glycol monolaurate): 68.4 mg/g
- Solubility ([1]; in Sorbitan Monolaurate): 34.1 mg/g
- Solubility ([1]; in Sorbitan monooleate): 19.5 mg/g
- Solubility ([1]; in Triacetin): 21.9 mg/g
- Solubility ([1]; in Vitamin E TPGS): 8.3 mg/g
- Formation of A1 ([2]; combination of α-tocopherol and ascorbyl palmitate as stabilizers): substantially suppresses
- Formation of primary oxidative N-demethylation product (A1) ([2]; in caprylic acid, extended stability, after about 4-6m): greater than 4%
- Compound 1 stability as measured by the formation of A1 ([2]; use of α-tocopherol alone): improved
- Solubility ([3]; in Capmul MCM (Glyceryl monocaprylcaprate, Type I, NF)): < 40 mg/mL
- Solubility ([3]; in Capryol 90 (Propylene glycol monocaprylate, Type II, NF)): 40 mg/mL (≈ 79.7 mM)
- Solubility ([3]; in Capryol 90 + 5% Poloxamer P188 USP, particulate seen after 24 hours): 50 mg/mL
- Solubility ([3]; in Kolliphor EL (PEG-35 Castor Oil USP)): < 40 mg/mL
- Solubility ([3]; in Labrasol ALF (Caprylocaproyl Polyoyl-8 glycerides, NF)): 40 mg/mL (≈ 79.7 mM)
- Solubility ([3]; in Maisine CC (Caprylic/capric triglyceride NF)): < 40 mg/mL
- Solubility ([3]; in Tween 20 (Polysorbate 20 NF)): < 40 mg/mL
- Solubility ([3]; in Tween 80 (polysorbate 80 NF)): < 40 mg/mL
